Activity calls are given as the source filed them. The rule behind the calls is not given here.
Assays:
[1] = target: Cyclin-dependent kinases regulatory subunit 1/S-phase kinase-associated protein 2 (Homo sapiens) (UniProt P61024+Q13309); test: Inhibition of GST-tagged SKP2 (unknown origin) binding to His6-tagged CKS1 (unknown origin) at 50 uM preincubated with SKP2 for 10 mins followed by CKS1 addition for 20 mins and measured after by HTRF method relative to control; assay type: protein assay; conditions: time 30.0 min
Chain of Cyclin-dependent kinases regulatory subunit 1/S-phase kinase-associated protein 2 (Homo sapiens) (P61024 2-79 limits assumed): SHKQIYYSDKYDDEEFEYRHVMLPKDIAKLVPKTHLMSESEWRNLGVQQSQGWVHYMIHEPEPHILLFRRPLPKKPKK
Chain of Cyclin-dependent kinases regulatory subunit 1/S-phase kinase-associated protein 2 (Homo sapiens) (Q13309 whole entry partner): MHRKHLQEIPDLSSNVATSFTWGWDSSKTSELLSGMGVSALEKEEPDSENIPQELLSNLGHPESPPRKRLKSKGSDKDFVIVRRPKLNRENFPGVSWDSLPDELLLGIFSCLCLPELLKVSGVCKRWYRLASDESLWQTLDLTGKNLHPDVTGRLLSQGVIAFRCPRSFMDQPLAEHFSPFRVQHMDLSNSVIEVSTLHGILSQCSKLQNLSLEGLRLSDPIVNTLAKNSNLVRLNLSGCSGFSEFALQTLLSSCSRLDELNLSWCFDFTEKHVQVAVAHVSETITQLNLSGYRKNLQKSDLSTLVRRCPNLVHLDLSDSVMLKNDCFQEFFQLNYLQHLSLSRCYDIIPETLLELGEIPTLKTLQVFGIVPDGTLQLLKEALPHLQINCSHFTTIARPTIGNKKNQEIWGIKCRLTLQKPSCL

[2] = target: S-phase kinase-associated protein 2 (Homo sapiens) (UniProt Q13309); test: Binding affinity to SKP2 in human MGC-803 cells assessed as increase in thermal stability at 57 to 68 degreeC incubated for 4 hrs by CETSA; assay type: cell-based
Chain of S-phase kinase-associated protein 2 (Homo sapiens) (Q13309 whole entry): as the sequence (Q13309 whole entry partner) above

PC-3 [3] = test: Inhibition of cell proliferation in human PC-3 cells incubated for 24 to 72 hrs by MTT assay; assay type: functional, cell-based; conditions: dose 2-50 µM, time 24-72 hrs
MGC-803 [4] = test: Inhibition of cell proliferation in human MGC-803 cells at 2 to 50 uM by MTT assay; assay type: functional, cell-based; conditions: dose 2-50 µM, time 24-72 hrs, TDE = time-dependent effect
PC-3 [5] = test: Inhibition of cell proliferation in human PC-3 cells at 2 to 50 uM by MTT assay; assay type: functional, cell-based; conditions: dose 2-50 µM, time 24-72 hrs, TDE = time-dependent effect
PC-3 [6] = test: Inhibition of cell proliferation in human PC-3 cells incubated for 72 hrs by MTT assay; assay type: functional, cell-based; conditions: PC-3, 72 h
MGC-803 [7] = test: Inhibition of colony formation in human MGC-803 cells incubated for 10 days by crystal violet staining based inverted microscopic analysis; assay type: functional, cell-based; conditions: dose 1-3 µM, time 10.0 day
MGC-803 [8] = test: Inhibition of cell invasion in human MGC-803 cells incubated for 48 hrs by […]; assay type: functional, cell-based; conditions: dose 2.5-7.5 µM
MGC-803 [9] = test: Inhibition of cell migration in human MGC-803 cells incubated for 48 hrs by wound healing assay; assay type: functional, cell-based; conditions: dose 2.5-7.5 µM
PC-3 [10] = test: Inhibition of cell invasion in human PC-3 cells incubated for 48 hrs by […]; assay type: functional, cell-based; conditions: dose 2.5-7.5 µM
PC-3 [11] = test: Induction of cell cycle arrest in human PC-3 cells assessed as cells at G0/G1 phase at 5 uM incubated for 36 hrs by PI staining based flow cytometry (reference value: 54.5%); assay type: functional
PC-3 [12] = test: Induction of cell cycle arrest in human PC-3 cells assessed as cells at S phase at 5 uM incubated for 36 hrs by PI staining based flow cytometry (reference value: 22.8%); assay type: functional
MGC-803 [13] = test: Induction of cell cycle arrest in human MGC-803 cells assessed as cells at G0/G1 phase at 5 uM incubated for 36 hrs by PI staining based flow cytometry (reference value: 57.1%); assay type: functional
PC-3 [14] = test: Induction of cell cycle arrest in human PC-3 cells assessed as cells at S phase at 7.5 uM incubated for 36 hrs by PI staining based flow cytometry (reference value: 22.8%); assay type: functional
PC-3 [15] = test: Induction of cell cycle arrest in human PC-3 cells assessed as cells at G2/M phase at 15 uM incubated for 36 hrs by PI staining based flow cytometry (reference value: 21.3%); assay type: functional
MGC-803 [16] = test: Induction of cell cycle arrest in human MGC-803 cells assessed as cells at G2/M phase at 5 uM incubated for 36 hrs by PI staining based flow cytometry (reference value: 20.6%); assay type: functional
MGC-803 [17] = test: Induction of cell cycle arrest in human MGC-803 cells assessed as cells at S phase at 7.5 uM incubated for 36 hrs by PI staining based flow cytometry (reference value: 18.2%); assay type: functional
MGC-803 [18] = test: Induction of cell cycle arrest in human MGC-803 cells assessed as cells at S phase at 15 uM incubated for 36 hrs by PI staining based flow cytometry (reference value: 18.2%); assay type: functional
MGC-803 [19] = test: Induction of cell cycle arrest in human MGC-803 cells assessed as cells at G2/M phase at 15 uM incubated for 36 hrs by PI staining based flow cytometry (reference value: 20.6%); assay type: functional
PC-3 [20] = test: Induction of cell cycle arrest in human PC-3 cells assessed as cells at S phase at 15 uM incubated for 12 hrs by PI staining based flow cytometry (reference value: 22.9%); assay type: functional
MGC-803 [21] = test: Induction of cell cycle arrest in human MGC-803 cells assessed as cells at G0/G1 phase at 15 uM incubated for 12 hrs by PI staining based flow cytometry (reference value: 57.9%); assay type: functional
MGC-803 [22] = test: Induction of cell cycle arrest in human MGC-803 cells assessed as cells at G2/M phase at 15 uM incubated for 12 hrs by PI staining based flow cytometry (reference value: 20.8%); assay type: functional
MGC-803 [23] = test: Induction of cell cycle arrest in human MGC-803 cells assessed as cells at G0/G1 phase at 15 uM incubated for 24 hrs by PI staining based flow cytometry (reference value: 57.9%); assay type: functional
MGC-803 [24] = test: Induction of cell cycle arrest in human MGC-803 cells assessed as cells at S phase at 15 uM incubated for 48 hrs by PI staining based flow cytometry (reference value: 19.6%); assay type: functional
MGC-803 [25] = test: Induction of cell cycle arrest in human MGC-803 cells assessed as cells at G2/M phase at 15 uM incubated for 48 hrs by PI staining based flow cytometry (reference value: 20.8%); assay type: functional
PC-3 [26] = test: Downregulation of SKP2 protein level in human PC-3 cells incubated for 48 hrs by Western blotting analysis; assay type: functional, cell-based; conditions: dose 5-15 µM
MGC-803 [27] = test: Upregulation of p21 protein expression in human MGC-803 cells at 5 to 15 uM incubated for 48 hrs by Western blotting analysis; assay type: functional, cell-based; conditions: dose 5-15 µM
PC-3 [28] = test: Upregulation of p21 protein expression in human PC-3 cells at 5 to 15 uM incubated for 48 hrs by Western blotting analysis; assay type: functional, cell-based; conditions: dose 5-15 µM
MGC-803 [29] = test: Upregulation of p21 protein expression in human MGC-803 cells at 15 uM by Western blotting analysis; assay type: functional, cell-based; conditions: time 6-48 hrs, TDE = time-dependent effect
MGC-803 [30] = test: Upregulation of p27 protein expression in human MGC-803 cells at 15 uM by Western blotting analysis; assay type: functional, cell-based; conditions: time 6-48 hrs, TDE = time-dependent effect
PC-3 [31] = test: Upregulation of p21 protein expression in human PC-3 cells at 15 uM by Western blotting analysis; assay type: functional, cell-based; conditions: time 6-48 hrs, TDE = time-dependent effect
[32] = Toxicity against NOD-SCID mouse assessed as body weight loss at 25 to 50 mg/kg, IG administered for 21 days; assay type: organism-based; conditions: in vivo, po, 504 h, dose 25-50 mg/kg, time 21 day
[33] = Toxicity against NOD-SCID mouse assessed as change in spleen morphology at 25 to 50 mg/kg, IG administered for 21 days by H and E staining based assay; assay type: organism-based; conditions: in vivo, po, 504 h, dose 25-50 mg/kg, time 21 day
[34] = Clearance in Sprague-Dawley rat at 1 mg/kg, iv measured upto 24 hrs by LC/MS-MS analysis; assay type: ADME, organism-based; conditions: in vivo
[35] = Volume of distribution at steady state in Sprague-Dawley rat at 1 mg/kg, iv measured upto 24 hrs by LC/MS-MS analysis; assay type: ADME, organism-based; conditions: in vivo
[36] = AUClast in Sprague-Dawley rat at 1 mg/kg, iv measured upto 24 hrs by LC/MS-MS analysis; assay type: ADME, organism-based; conditions: in vivo
[37] = MRT(infinity) in Sprague-Dawley rat at 1 mg/kg, iv measured upto 24 hrs by LC/MS-MS analysis; assay type: ADME, organism-based; conditions: in vivo
[38] = Cmax in Sprague-Dawley rat at 50 mg/kg, po measured upto 24 hrs by LC/MS-MS analysis; assay type: ADME, organism-based; conditions: in vivo

inhibition [1]: 73.7% | Activity [2]: Active | IC50 (PC-3 [6]): 11.7 µM | CL [34]: 24 mL/min/kg | Vdss [35]: 8.87 L/kg | AUC(0-t) at 24 h [36]: 699 ng·h/mL | MRT [37]: 6.28 h | Cmax [38]: 168 ng/mL
Structure (SMILES): COc1ccc(-c2cc(C)nc3nc(SCc4ccc(Br)cc4)nn23)c(OC)c1
inhibition (PC-3 [3]): Dose-Dependent Effect | inhibition (MGC-803 [4]): Tde | inhibition (PC-3 [5]): Tde | inhibition (MGC-803 [7]): Dose-Dependent Effect | inhibition (MGC-803 [8]): Dose-Dependent Effect | inhibition (MGC-803 [9]): Dose-Dependent Effect | inhibition (PC-3 [10]): Dose-Dependent Effect | Activity (PC-3 [11]): 46.9% | Activity (PC-3 [12]): 28.1% | Activity (MGC-803 [13]): 49.8% | Activity (PC-3 [14]): 37.2% | Activity (PC-3 [15]): 16.3% | Activity (MGC-803 [16]): 23.2% | Activity (MGC-803 [17]): 35.8% | Activity (MGC-803 [18]): 44.3% | Activity (MGC-803 [19]): 14.4% | Activity (PC-3 [20]): 32.6% | Activity (MGC-803 [21]): 44% | Activity (MGC-803 [22]): 21.6% | Activity (MGC-803 [23]): 40.4% | Activity (MGC-803 [24]): 37.3% | Activity (MGC-803 [25]): 20.1% | Activity (PC-3 [26]): Dose-Dependent Effect | Activity (MGC-803 [27]): Active | Activity (PC-3 [28]): Active | Activity (MGC-803 [29]): Tde | Activity (MGC-803 [30]): Tde | Activity (PC-3 [31]): Tde | Activity [32]: Non-Toxic | Activity [33]: Non-Toxic
